Data as given in patent US20090209577A1, “Novel Triazolopyridine Compounds” (PFIZER INC., priority 2004, published 2009).
Where a name gives a salt, the structure may show the parent alone.

Molecular target: T1, human p38 kinase alpha (Homo sapiens, UniProt Q16539)
T1 construct: The coding region of the human p38a cDNA was obtained by PCR-amplification from RNA isolated from the human monocyte cell line THP.1; made in house; host or cells: E. coli DH10B
Assay: p38 kinase in vitro assay (PHAS-I / 32P-ATP format or EGFRP / 33P-ATP format)
Type: biochemical
Settings: activated human p38 kinase alpha, 50 μM unlabeled ATP; two assay formats, table does not say which
Experimental: The ability of compounds to inhibit human p38 kinase alpha was evaluated using two in vitro assay methods. In the first method, activated human p38 kinase alpha phosphorylates a biotinylated substrate, PHAS-I (phosphorylated heat and acid stable protein-insulin inducible), in the presence of gamma ^32P-ATP (^32P-ATP). PHAS-I was biotinylated prior to the assay and provides a means of capturing the substrate, which is phosphorylated during the assay. p38 Kinase was activated by MKK6. Compounds were tested in 10 fold serial dilutions over the range of 100 μM to 0.001 μM using 1% DMSO. Each concentration of inhibitor was tested in triplicate.
All reactions were carried out in 96 well polypropylene plates. Each reaction well contained 25 mM HEPES pH 7.5, 10 mM magnesium acetate and 50 μM unlabeled ATP. Activation of p38 was required to achieve sufficient signal in the assay. Biotinylated PHAS-1 was used at 1-2 μg per 50 μl reaction volume, with a final concentration of 1.5 μM. Activated human p38 kinase alpha was used at 1 μg per 50 μl reaction volume representing a final concentration of 0.3 μM. Gamma ^32P-ATP was used to follow the phosphorylation of PHAS-1. ^32P-ATP has a specific activity of 3000 Ci/mmol and was used at 1.2 μCi per 50 μl reaction volume. The reaction proceeded either for one hour or overnight at 30° C.
Following incubation, 20 μl of reaction mixture was transferred to a high capacity streptavidin coated filter plate (SAM-streptavidin-matrix, Promega) prewetted with phosphate buffered saline. The transferred reaction mix was allowed to contact the streptavidin membrane of the Promega plate for 1-2 minutes. Following capture of biotinylated PHAS-1 with ^32P incorporated, each well was washed to remove unincorporated ^32P-ATP three times with 2M NaCl, three washes of 2M NaCl with 1% phosphoric, three washes of distilled water and finally a single wash of 95% ethanol. Filter plates were air-dried and 20 μl of scintillant was added. The plates were sealed and counted.
A second assay format was also employed that is based on p38 kinase alpha induced phosphorylation of EGFRP (epidermal growth factor receptor peptide, a 21 mer) in the presence ^33P-ATP. Compounds were tested in 10 fold serial dilutions over the range of 100 μM to 0.001 μM in 1% DMSO. Each concentration of inhibitor was tested in triplicate. Compounds were evaluated in 50 μl reaction volumes in the presence of 25 mM Hepes pH 7.5, 10 mM magnesium acetate, 4% glycerol, 0.4% bovine serum albumin, 0.4 mM DTT, 50 μM unlabeled ATP, 25 μg EGFRP (200 μM), and 0.05 μCi ^33P-ATP. Reactions were initiated by addition of 0.09 μg of activated, purified human GST-p38 kinase alpha. Activation was carried out using GST-MKK6 (5:1, p38:MKK6) for one hour at 30° C. in the presence of 50 μM ATP. Following incubation for 60 minutes at room temperature, the reaction was stopped by addition of 150 μl of AG 1×8 resin in 900 mM sodium formate buffer, pH 3.0 (1 volume resin to 2 volumes buffer). The mixture was mixed three times with pipetting and the resin was allowed to settle. A total of 50 μl of clarified solution head volume was transferred from the reaction wells to Microlite-2 plates. 150 μl of Microscint 40 was then added to each well of the Microlite plate, and the plate was sealed, mixed, and counted.
The above protocol assays were used to determine the IC50 values for compounds in Examples 1-71 above.

T1 sequence (Q16539 whole entry): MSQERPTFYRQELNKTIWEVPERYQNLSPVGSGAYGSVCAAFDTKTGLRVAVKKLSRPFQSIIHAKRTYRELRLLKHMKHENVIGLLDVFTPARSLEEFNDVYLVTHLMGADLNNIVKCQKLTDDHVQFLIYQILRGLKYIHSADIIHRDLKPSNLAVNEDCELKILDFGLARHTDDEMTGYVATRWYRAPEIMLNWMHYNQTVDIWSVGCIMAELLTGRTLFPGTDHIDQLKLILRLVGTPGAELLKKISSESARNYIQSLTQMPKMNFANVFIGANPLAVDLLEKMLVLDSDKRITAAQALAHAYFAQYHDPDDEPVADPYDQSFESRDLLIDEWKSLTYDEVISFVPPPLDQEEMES

Compound	IC50 [nM]
COC(=O)c1ccc(C)c(-c2nnc3ccc(/C=C/c4ccc(F)cc4F)cn23)c1 [Example 16, methyl 3-{6-[(E)-2-(2,4-difluorophenyl)vinyl][1,2,4]triazolo[4,3-a]pyridin-3-yl}-4-methylbenzoate]	17.3
COC(=O)c1ccc(C)c(-c2nnc3ccc(CCc4ccc(F)cc4F)cn23)c1 [Example 17, methyl 3-{6-[2-(2,4-difluorophenyl)ethyl][1,2,4]triazolo[4,3-a]pyridin-3-yl}-4-methylbenzoate]	17.1
Cc1ccc(C(=O)O)cc1-c1nnc2ccc(CCc3ccc(F)cc3F)cn12 [Example 21, 3-{6-[2-(2,4-difluorophenyl)ethyl][1,2,4]triazolo[4,3-a]pyridin-3-yl}-4-methylbenzoic acid]	2710
NC(=O)c1ccc(-c2nnc3ccc(Sc4ccc(F)cc4F)cn23)cc1 [Example 23, 4-{6-[(2,4-difluorophenyl)thio][1,2,4]triazolo[4,3-a]pyridin-3-yl}benzamide]	201
CNC(=O)c1ccc(-c2nnc3ccc(Sc4ccc(F)cc4F)cn23)cc1 [Example 24, 4-{6-[(2,4-difluorophenyl)thio][1,2,4]triazolo[4,3-a]pyridin-3-yl}-N-methylbenzamide]	293
O=C(NCCO)c1ccc(-c2nnc3ccc(Sc4ccc(F)cc4F)cn23)cc1 [Example 25, 4-{6-[(2,4-difluorophenyl)thio][1,2,4]triazolo[4,3-a]pyridin-3-yl}-N-(2-hydroxyethyl)benzamide]	93.6
NC(=O)c1cccc(-c2nnc3ccc(Sc4ccc(F)cc4F)cn23)c1 [Example 26, 3-{6-[(2,4-difluorophenyl)thio][1,2,4]triazolo[4,3-a]pyridin-3-yl}benzamide]	241
NC(=O)c1ccc(-c2nnc3ccc(Cc4ccc(F)cc4F)cn23)cc1 [Example 27, 4-[6-(2,4-difluorobenzyl)[1,2,4]triazolo[4,3-a]pyridin-3-yl]benzamide]	3020
NC(=O)c1cccc(-c2nnc3ccc(Cc4ccc(F)cc4F)cn23)c1 [Example 28, 3-[6-(2,4-difluorobenzyl)[1,2,4]triazolo[4,3-a]pyridin-3-yl]benzamide]	2980
COC(=O)c1cccc(-c2nnc3ccc(C(=O)c4ccc(F)cc4F)cn23)c1 [Example 29, methyl 3-[6-(2,4-difluorobenzoyl)[1,2,4]triazolo[4,3-a]pyridin-3-yl]benzoate]	14000
NC(=O)c1cccc(-c2nnc3ccc(C(=O)c4ccc(F)cc4F)cn23)c1 [Example 30, 3-[6-(2,4-difluorobenzoyl)[1,2,4]triazolo[4,3-a]pyridin-3-yl]benzamide]	> 100000
CC(C)(CC(O)CO)c1nnc2ccc(Sc3ccc(F)cc3F)cn12 (centres unmarked) [Example 33, 4-{6-[(2,4-difluorophenyl)thio][1,2,4]triazolo[4,3,a]pyridin-3-yl}-4-methylpentane-1,2-diol hydrochloride]	1740
CC(C)c1nnc2cc(Cl)c(Sc3ccc(F)cc3F)c(Cl)n12 [Example 34, 5,7-dichloro-6-[(2,4-difluorophenyl)thio]-3-isopropyl[1,2,4]triazolo[4,3-a]pyridine]	3380
CC(C)c1nnc2cc(Cl)c(Sc3ccc(F)cc3F)cn12 [Example 35, 7-chloro-6-[(2,4-difluorophenyl)thio]-3-isopropyl[1,2,4]triazolo[4,3-a]pyridine hydrochloride]	889
CC(C)c1nnc2ccc(Sc3ccc(F)cc3F)c(Cl)n12 [Example 36, 5-chloro-6-[(2,4-difluorophenyl)thio]-3-isopropyl[1,2,4]triazolo[4,3-a]pyridine]	12.3
CCCCSc1ccc2nnc(C(C)C)n2c1 [Example 37, 6-(butylthio)-3-isopropyl[1,2,4]triazolo[4,3-a]pyridine hydrochloride]	> 100000

Compound	IC50 [nM]
Cc1c(Sc2ccc(F)cc2F)ccc2nnc(C(C)C)n12 [Example 38, 6-[(2,4-difluorophenyl)thio]-3-isopropyl-5-methyl[1,2,4]triazolo[4,3-a]pyridine]	101
CC(C)c1nnc2cc(Cl)c(Sc3ccc(F)cc3F)c(Br)n12 [Example 39, 5-bromo-7-chloro-6-[(2,4-difluorophenyl)thio]-3-isopropyl[1,2,4]triazolo[4,3-a]pyridine]	6080
Fc1cccc(F)c1-c1nnc2ccc(Br)cn12 [Example 40, 6-bromo-3-(2,6-difluorophenyl)[1,2,4]triazolo[4,3-a]pyridine]	13300
Cc1ccc(C(N)=O)cc1-c1nnc2ccc(Sc3ccc(F)cc3F)cn12 [Example 41, 3-{6-[(2,4-difluorophenyl)thio][1,2,4]triazolo[4,3-a]pyridin-3-yl}-4-methylbenzamide]	60.8
Cc1ccc(C(=O)NCC(N)=O)cc1-c1nnc2ccc(Sc3ccc(F)cc3F)cn12 [Example 42, N-(3-{6-[(2,4-difluorophenyl)thio][1,2,4]triazolo[4,3-a]pyridin-3-yl}-4-methylbenzoyl)glycinamide]	46.5
Cc1ccc(C(=O)NCCO)cc1-c1nnc2ccc(Sc3ccc(F)cc3F)cn12 [Example 43, 3-{6-[(2,4-difluorophenyl)thio][1,2,4]triazolo[4,3-a]pyridin-3-yl}-N-(2-hydroxyethyl)-4-methylbenzamide]	20.5
O=C(CO)N1CCC(c2nnc3ccc(Sc4ccc(F)cc4F)cn23)CC1 [Example 44, 2-(4-{6-[(2,4-difluorophenyl)thio][1,2,4]triazolo[4,3-a]pyridin-3-yl}piperidin-1-yl)-2-oxoethanol hydrochloride]	212
Cc1cc(CNCCO)ccc1-c1nnc2ccc(Sc3ccc(F)cc3F)cn12 [Example 45, 2-[(4-{6-[(2,4-difluorophenyl)thio][1,2,4]triazolo[4,3-a]pyridin-3-yl}-3-methylbenzyl)amino]ethanol dihydrochloride]	33.3
CC1(c2nnc3ccc(Sc4ccc(F)cc4F)cn23)CC1 [Example 46, 6-[(2,4-difluorophenyl)thio]-3-(1-methylcyclopropyl)[1,2,4]triazolo[4,3-a]pyridine hydrochloride]	24.9
Fc1ccc(Sc2ccc3nnc(-c4c(F)cccc4F)n3c2)c(F)c1 [Example 47, 3-(2,6-difluorophenyl)-6-[(2,4-difluorophenyl)thio][1,2,4]triazolo[4,3-a]pyridine]	7.2
CC(C)(C)c1nnc2ccc(Sc3ccc(F)cc3F)cn12 [Example 48, 3-tert-butyl-6-[(2,4-difluorophenyl)thio][1,2,4]triazolo[4,3-a]pyridine]	4.8
CNC(=O)c1ccc(C)c(-c2nnc3ccc(Sc4ccc(F)cc4F)cn23)c1 [Example 49, 3-{6-[(2,4-difluorophenyl)thio][1,2,4]triazolo[4,3-a]pyridin-3-yl}-N,4-dimethylbenzamide]	39.9
CC(C)c1nnc2ccc(Sc3ccc(Br)cc3C(F)(F)F)cn12 [Example 51, 6-{[4-bromo-2-(trifluoromethyl)phenyl]thio}-3-isopropyl[1,2,4]triazolo[4,3-a]pyridine hydrochloride]	> 100000
CC(C)c1nnc2ccc(Sc3ccc(F)cc3C(F)(F)F)cn12 [Example 53, 6-{[4-fluoro-2-(trifluoromethyl)phenyl]thio}-3-isopropyl[1,2,4]triazolo[4,3-a]pyridine hydrochloride]	50500
CC(C)c1nnc2ccc(Sc3c(Cl)cc(Cl)cc3Cl)cn12 [Example 55, 3-isopropyl-6-[(2,4,6-trichlorophenyl)thio][1,2,4]triazolo[4,3-a]pyridine hydrochloride]	8240
C=Cc1ccc2nnc(C(C)C)n2c1 [Example 56, 3-isopropyl-6-vinyl[1,2,4]triazolo[4,3-a]pyridine]	> 100000
